Patent US20240041042A1, “1-(PYRIDYL)-5-AZINYLPYRAZOLE DERIVATIVES, AND THEIR USE FOR CONTROL OF UNDESIRED PLANT GROWTH” (Bayer Aktiengesellschaft, priority 2020, published 2024)
Like-named read-outs stand apart in the source and are kept apart here.

Legend:
Assay type in all cases: in vivo
[1] = system: Echinochloa crus-galli (ECHCG); assay: Post-emergence herbicidal action against ECHCG; details: dosage 320 g/ha
Outline: (§1)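 Doses of 320 g/ha or lower, suffixes a, b and c marking different dosages, were applied post-emergence at the one-leaf stage in 600 l/ha water with 0.5% additive. Damage was assessed visually after about 3 weeks in the greenhouse.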

[2] = system: Abutilon theophrasti (ABUTH); assay: Post-emergence herbicidal action against ABUTH; details: visual rating about 3 weeks after treatment vs untreated controls (100% = plants have died, 0% = like control plants)
Outline: as §1

Viola tricolor (VIOTR) [3] = assay: Pre-emergence herbicidal action against VIOTR
Outline: (§2)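 Read-out is visual percent damage relative to untreated pots, with 100% meaning dead plants and 0% meaning no difference, assessed roughly three weeks after treatment. Compounds were applied pre-emergence to the covering soil at up to 320 g/ha.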

[4] = system: Polygonum convolvulus (POLCO); assay: Post-emergence herbicidal action against POLCO
Outline: as §1

Avena fatua (AVEFA) [5] = assay: Pre-emergence herbicidal action against AVEFA; details: 320 g/ha, visual scoring after about 3 weeks vs untreated controls
Outline: as §2

[6] = system: Alopecurus myosuroides (ALOMY); assay: Post-emergence herbicidal action against ALOMY; details: 320 g/ha, visual rating about 3 weeks after treatment vs untreated controls (100% = plants have died, 0% = like control plants)
Outline: as §1

[7] = system: Amaranthus retroflexus (AMARE); assay: Post-emergence herbicidal action against AMARE
Outline: as §1

[8] = system: Echinochloa crus-galli (ECHCG); assay: Pre-emergence herbicidal action against ECHCG; details: dosage 320 g/ha
Outline: as §2

Zea mays (ZEAMX) [9] = details: crop plant compatibility, effect vs untreated controls
Outline: (§3)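 Visual rating (% effect vs. untreated plants; 100% = plant death) made about 3 weeks after treatment. Plants had been sprayed at one-leaf stage, 2–3 weeks post-sowing, with aqueous WP/EC preparations containing 0.5% additive, 600 l/ha water volume; a, b, c mark dose levels.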

Oryza sativa (ORYSA) = details: crop plant compatibility, effect in comparison to untreated controls
Outline: as §3

[10] = system: Verconica persica (VERPE); assay: Pre-emergence herbicidal action against VERPE
Outline: as §2

[11] = system: Pharbitis purpurea (PHBPU); assay: Pre-emergence herbicidal action against PHBPU; details: dosage 320 g/ha
Outline: as §2

[12] = system: Amaranthus retroflexus (AMARE); assay: Pre-emergence herbicidal action against AMARE; details: visual scoring after about 3 weeks vs untreated controls
Outline: as §2

[13] = system: Triticum aestivum (TRZAS); details: pre-emergence, 80 g/ha, crop plant compatibility, in comparison to untreated controls
Outline: (§4)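 Scoring: visual, % of untreated control, about 3 weeks after a pre-emergence application to the soil surface. Application used WP or EC formulations diluted in water with 0.5% additive at 600 l/ha; dosage levels are marked by suffixes a, b and c.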

[14] = system: Alopecurus myosuroides (ALOMY); assay: Pre-emergence herbicidal action against ALOMY; details: scored visually after about 3 weeks, 100% = plants have died
Outline: as §2

[15] = system: Polygonum convolvulus (POLCO); assay: Pre-emergence herbicidal action against POLCO
Outline: as §2

[16] = system: Verconica persica (VERPE); assay: Post-emergence herbicidal action against VERPE
Outline: as §1

Avena fatua (AVEFA) [17] = assay: Post-emergence herbicidal action against AVEFA; details: 320 g/ha, visual rating about 3 weeks after treatment
Outline: as §1

Setaria viridis (SETVI) [18] = assay: Pre-emergence herbicidal action against SETVI; details: dosage 320 g/ha
Outline: as §2

Viola tricolor (VIOTR) [19] = assay: Post-emergence herbicidal action against VIOTR
Outline: as §1

Lolium rigidum (LOLRI) = assay: Pre-emergence herbicidal action against LOLRI; details: dosage 320 g/ha
Outline: as §2

[20] = system: Matricaria inodora (MATIN); assay: Pre-emergence herbicidal action against MATIN; details: dosage 320 g/ha
Outline: as §2

Setaria viridis (SETVI) [21] = assay: Post-emergence herbicidal action against SETVI; details: dosage 320 g/ha
Outline: as §1

[22] = system: Digitaria sanguinalis (DIGSA); assay: Pre-emergence herbicidal action against DIGSA
Outline: as §2

[23] = system: Matricaria inodora (MATIN); assay: Post-emergence herbicidal action against MATIN
Outline: as §1

[24] = system: Pharbitis purpurea (PHBPU); assay: Post-emergence herbicidal action against PHBPU
Outline: as §1

[25] = system: Triticum aestivum (TRZAS); details: crop plant compatibility, 80 g/ha, effect vs untreated controls
Outline: as §3

Zea mays (ZEAMX) [26] = details: pre-emergence, crop plant compatibility, in comparison to untreated controls
Outline: as §4

[27] = system: Digitaria sanguinalis (DIGSA); assay: Post-emergence herbicidal action against DIGSA; details: 320 g/ha, visual rating about 3 weeks after treatment
Outline: as §1

[28] = 80 g/ha, visual rating about 3 weeks after treatment vs untreated controls (100% = plants have died, 0% = like control plants)
[29] = 320 g/ha, visual rating about 3 weeks after treatment

Post-emergence action against ZEAMX in % (Zea mays (ZEAMX) [9]; 80 g/ha) | Post-emergence action against ORYSA in % (Oryza sativa (ORYSA); 80 g/ha) | Pre-emergence action against TRZAS in % [13] | Pre-emergence action against ZEAMX in % (Zea mays (ZEAMX) [26]; 80 g/ha) | SMILES | Post-emergence action against ABUTH in % ([2]; 80 g/ha) | Post-emergence action against ABUTH in % ([2]; 320 g/ha) | Pre-emergence action against VIOTR in % (Viola tricolor (VIOTR) [3]; 320 g/ha, Viola tricolor) | Post-emergence action against POLCO in % ([4]; dosage 80 g/ha) | Post-emergence action against POLCO in % ([4]; dosage 320 g/ha) | Post-emergence action against AMARE in % [7, 28] | Post-emergence action against AMARE in % [7, 29] | Pre-emergence action against ECHCG in % [8] | Pre-emergence action against AMARE in % ([12]; 80 g/ha) | Pre-emergence action against AMARE in % ([12]; 320 g/ha) | Post-emergence action against VERPE in % ([16]; 320 g/ha, VERPE) | Post-emergence action against VIOTR in % (Viola tricolor (VIOTR) [19]; 320 g/ha) | Pre-emergence action against LOLRI in % (Lolium rigidum (LOLRI)) | Pre-emergence action against DIGSA in % ([22]; dosage 320 g/ha) | Post-emergence action against MATIN in % ([23]; dosage 320 g/ha) | Post-emergence action against PHBPU in % ([24]; dosage 320 g/ha) | further results
0% | 0% | 10% | – | COC(=O)[C@@H](C)Oc1nn(-c2ncccc2F)c(-c2cccnc2)c1Br [Example I-03] | 80% | 90% | 100% | 90% | 90% | 80% | 90% | 80% | 90% | 100% | 90% | 90% | 100% | 100% | 90% | 100% | Post-emergence action against ECHCG in % [1]: 90%; Pre-emergence action against VIOTR in % (Viola tricolor (VIOTR) [3]; dosage 80 g/ha): 100%; Pre-emergence action against AVEFA in % (Avena fatua (AVEFA) [5]): 80%; Post-emergence action against ALOMY in % [6]: 100%; Pre-emergence action against VERPE in % ([10]; dosage 80 g/ha): 90%; Pre-emergence action against VERPE in % ([10]; dosage 320 g/ha): 100%; Pre-emergence action against PHBPU in % [11]: 90%; Pre-emergence action against ALOMY ([14]; 80 g/ha): 90%; Pre-emergence action against ALOMY ([14]; 320 g/ha): 100%; Pre-emergence action against POLCO in % ([15]; dosage 80 g/ha): 90%; Pre-emergence action against POLCO in % ([15]; dosage 320 g/ha): 100%; Post-emergence action against VERPE in % ([16]; dosage 80 g/ha): 80%; Post-emergence action against AVEFA in % (Avena fatua (AVEFA) [17]): 90%; Pre-emergence action against SETVI in % (Setaria viridis (SETVI) [18]): 100%; Post-emergence action against VIOTR in % (Viola tricolor (VIOTR) [19]; 80 g/ha): 90%; Pre-emergence action against MATIN in % [20]: 100%; Post-emergence action against SETVI in % (Setaria viridis (SETVI) [21]): 90%; Pre-emergence action against DIGSA in % ([22]; 80 g/ha, visual scoring after about 3 weeks vs untreated controls): 90%; Post-emergence action against MATIN in % ([23]; dosage 80 g/ha): 80%; Post-emergence action against PHBPU in % ([24]; dosage 80 g/ha): 90%
0% | 0% | 0% | 0% | COC(=O)[C@@H](C)Oc1nn(-c2ncccc2F)c(-c2cccnc2)c1C#N [Example I-04] | 90% | 90% | 100% | – | 90% | 90% | 90% | 90% | 90% | 100% | – | 80% | 90% | – | – | 100% | Post-emergence action against TRZAS in % [25]: 20%; Post-emergence action against ORYSA in % (Oryza sativa (ORYSA); 320 g/ha): 0%; Pre-emergence action against VERPE in % ([10]; dosage 320 g/ha): 100%; Pre-emergence action against ALOMY ([14]; 320 g/ha): 100%; Pre-emergence action against POLCO in % ([15]; dosage 320 g/ha): 100%; Post-emergence action against DIGSA in % [27]: 80%; Pre-emergence action against SETVI in % (Setaria viridis (SETVI) [18]): 100%; Pre-emergence action against MATIN in % [20]: 90%; Post-emergence action against SETVI in % (Setaria viridis (SETVI) [21]): 100%
0% | 0% | 20% | 0% | CCOC(=O)COc1nn(-c2ccccn2)c(-c2ccc(Cl)nc2)c1Br [Example I-239] | – | – | – | 80% | 80% | – | 80% | – | 80% | 90% | 80% | 80% | – | 90% | 80% | 90% | Post-emergence action against ZEAMX in % (Zea mays (ZEAMX) [9]; 320 g/ha): 20%; Pre-emergence action against ZEAMX in % (Zea mays (ZEAMX) [26]; 320 g/ha): 20%; Post-emergence action against VERPE in % ([16]; dosage 80 g/ha): 80%; Post-emergence action against VIOTR in % (Viola tricolor (VIOTR) [19]; 80 g/ha): 80%; Post-emergence action against PHBPU in % ([24]; dosage 80 g/ha): 80%
0% | 0% | 20% | 20% | O=C(O)COc1nn(-c2ccccn2)c(-c2ccc(Cl)nc2)c1Cl [Example I-236] | – | – | – | – | 80% | – | 80% | – | – | 80% | 80% | – | 90% | 90% | 80% | 80% | Post-emergence action against ORYSA in % (Oryza sativa (ORYSA); 320 g/ha): 0%
